Measurements from PMC11673488, “Enzyme Inhibitory, Physicochemical, and Phytochemical Properties and Botanical Sources of Honey, Bee Pollen, Bee Bread, and Propolis Obtained from the Same Apiary” (Antioxidants, 2024).
Counter-ions that a name gives are not always drawn.

Columns and labels:
Assay type in all cases: biochemical
[1] = tested on: T1, adenosine deaminase (ADA); experiment: ADA assay (Blum and Schwedt); conditions: inhibitor in […] ethanol; unreliable (extrapolated beyond highest tested […])
T1 construct: method of Blum and Schwedt
Excerpt: ADA assay (Blum and Schwedt) on adenosine deaminase (ADA)

lipase = biological target: T2, lipase; experiment: p-nitrophenyl caprate hydrolysis; conditions: substrate p-nitrophenyl caprate; inhibitor in […] ethanol
T2 construct: gene PNLIP; p-nitrophenyl caprate assay
Excerpt: p-nitrophenyl caprate hydrolysis on lipase

neuraminidase = biological target: T3, neuraminidase; experiment: neuraminidase assay (Myers et al.); conditions: inhibitor in […] ethanol
T3 construct: gene nanI; method of Myers et al
Excerpt: neuraminidase assay (Myers et al.) on neuraminidase

CCCCCC[C@H]([C@H](C)O)n1cnc2c(N)ncnc21 [EHNA.HCl]
Adenosine Deaminase / IC50 (mg/mL) * [1]: 0.61 ± 0.05 mg/mL

CCCCCCCCCCC[C@@H](C[C@@H]1OC(=O)[C@H]1CCCCCC)OC(=O)[C@H](CC(C)C)NC=O [Orlistat]
Lipase / IC50 (mg/mL) * (lipase): 0.00245 ± 0.00010 mg/mL

O=c1c(O)c(-c2ccc(O)c(O)c2)oc2cc(O)cc(O)c12 [Quercetin dihydrate]
Neuraminidase / IC50 (mg/mL) * (neuraminidase): 0.00035 ± 0.00005 mg/mL
